Data set [1] relates to SKOV3IP1CIS. The experiment in a line: Matrigel transwell invasion assay. The format is cell-based, human. As to the method: Cell invasion was measured using the Matrigel transwell method. OVCAR3CIS (3.0×10^4 cells/mL) or SKOVip1CIS (3.5×10^4 cells/mL) were seeded into 10 cm Petri dishes and transfected with siRNAs. Twenty-four hours later, serum-free matrigel (BD Biosciences CA, USA) was added onto the upper chambers of 24-well plates and incubated at 37° C. for polymerization. Transfected cells were collected and resuspended in serum-free and re-seeded onto the Matrigel-coated chambers. Medium containing 10% FBS was added to the lower area of the wells, and the plates incubated for 48 hours at 37° C. The medium was removed, and cells that invaded through the matrigel fixed and stained using ProtocolHema 3 Stain Set (Fisher Scientific MI, USA). Invaded cells were microscopically counted using a digital camera to capture images at a 20× resolution. The percentage of cell invasion was calculated using the NC-SIRNA condition as 100% cell invasion.

In data set [2] the test system is OVCAR3CIS cells. The experiment in a line: Cell viability, Alamar blue, siRNA alone or with cisplatin. The format is cell-based. The following applies: OVCAR3CIS, vs NC-siRNA. As to the method:
OVCAR3CIS cells (3.0×10^4 cells/mL) or SKOV3ip1CIS (3.0×10^4 cells/mL) were seeded into 12-well plates. […] The next day, 400 cells (OVCAR3CIS) or 1,000 cells (SKOV3ip1CIS) were seeded into 6-well plates and incubated for seven days, fixed and stained with 0.5% crystal violet in methanol. Colonies of at least 50 cells were counted using a light microscope (CKX41: Olympus, Center Valley, PA, USA) with a total magnification of 40x. For cell viability assays, OVCAR3 and OVCAR3CIS (3.0×10^4 cells/mL) or SKOV3ip1and SKOV3ip1CIS (3.5×10^4 cells/mL) were seeded into 96-well plates, and 24 hours later, siRNA transfection was performed as described above. The next day, the transfection mix was replaced with cisplatin (CIS) (2.5 uM final concentration dissolved in regular cell culture media) and after forty-eight hours, the medium was removed, and Alamar blue dye (Invitrogen, Thermo Fisher Scientific, Eugene, OR, USA) was added following the manufacturer's instructions. Optical density (OD) was measured, and percentages of cell viability were calculated after blank OD subtraction. Untreated cells were assessed as 100% cell viability.
In general terms: Alamar Blue is a resazurin reagent that responds to reducing activity.

Data set [3] relates to SKOV3ip1 cells. The experiment in a line: Cell viability, Alamar blue, siRNA. The format is cell-based, human. The note with it: SKOV3ip1, any siRNA concentration tested, vs NC-siRNA. Here is the method: OVCAR3CIS cells (3.0×10^4 cells/mL) or SKOV3ip1CIS (3.0×10^4 cells/mL) were seeded into 12-well plates. Twenty-four hours later, cells were transfected with 100 nM (final concentration) of each siRNA. The next day, 400 cells (OVCAR3CIS) or 1,000 cells (SKOV3ip1CIS) were seeded into 6-well plates and incubated for seven days, fixed and stained with 0.5% crystal violet in methanol. Colonies of at least 50 cells were counted using a light microscope (CKX41: Olympus, Center Valley, PA, USA) with a total magnification of 40x. For cell viability assays, OVCAR3 and OVCAR3CIS (3.0×10^4 cells/mL) or SKOV3ip1and SKOV3ip1CIS (3.5×10^4 cells/mL) were seeded into 96-well plates, and 24 hours later, siRNA transfection was performed as described above. The next day, the transfection mix was replaced with cisplatin (CIS) (2.5 uM final concentration dissolved in regular cell culture media) and after forty-eight hours, the medium was removed, and Alamar blue dye (Invitrogen, Thermo Fisher Scientific, Eugene, OR, USA) was added following the manufacturer's instructions. Optical density (OD) was measured, and percentages of cell viability were calculated after blank OD subtraction. Untreated cells were assessed as 100% cell viability.

Data set [4] concerns Caspase-3. Kind of data set: Caspase-3 fluorometric activity in OVCAR3CIS cells. The format is cell-based. The following applies: 72 hours after transfection, vs NC-siRNA. Here is the method:
(§1) Caspase-3 activity was quantified using the Caspase-3/CPP32 Fluorometric Assay Kit (BioVision CA, USA) as per the manufacturer's instructions. OVCAR3CIS (3.0×10^4 cells/mL) or SKOV3ip1CIS (3.5×10^4 cells/mL) were seeded into 10 cm Petri dishes and transfected with NC-siRNA or CASC10-siRNA (2). Twenty-four hours later, the media was replaced by regular media, and seventy-two hours after transfection, cells were collected, pellets lysed, and total protein concentration determined. Equal amounts of protein were mixed with 2×Reaction Buffer and 1 mM DEVD-AFC substrate in a 96-well plate and incubated at 37° C. for 2.5 hours. Fluorescence intensity at 400 nm excitation and 505 nm emission was measured.

Data set [5] has as its system Caspase-3. The experiment in a line: Caspase-3 fluorometric activity in SKOV3ip1CIS cells. The format is cell-based, human. The following applies: 72 hours after transfection, vs NC-siRNA. As to the method:
as §1

Data set [6] has as its system SKOV3ip1CIS cells. Kind of data set: Western blot of apoptotic-related and cell-cycle related proteins. The format is cell-based, human. Here is the method:
Cell pellets were lysed with complete lysis buffer and total protein concentration […]. Protein samples were separated by SDS-PAGE, blotted onto nitrocellulose membranes, blocked in either 5% non-fat dry milk (Bio-Rad) or 5% BSA (HyClone), and probed with the appropriate dilution of corresponding primary antibody. Membranes were rinsed and incubated with corresponding HRP-conjugated secondary antibody, followed by enhanced chemiluminescence and autoradiography.

In data set [7] the test system is OVCAR3CIS. The experiment in a line: Cell cycle progression by flow cytometry. The format is cell-based. The note with it: 48 hours post-transfection. Here is the method:
To assess cell cycle progression, OVCAR3CIS (3.0×10^4 cells/mL) or SKOV3ip1CIS (3.5×10^4 cells/mL) were seeded into 10 cm Petri dishes and transfected with NC-siRNA or CASC10-siRNA (2). Forty-eight hours later, attached cells were collected, washed in ice-cold PBS, fixed with 70% cold ethanol, and stored at 4° C. Cells were then washed with ice-cold PBS, resuspended in propidium iodide (PI)/RNase Staining Buffer, incubated in the dark for 15 minutes at room temperature, and then analyzed by flow cytometry in BD C6 Accuri (CA, USA). Accuri's software was used to determine the percentage of cells in each cell cycle phase.
On the technique in general: Flow cytometry measures light scatter and fluorescence of single cells or particles in a stream.

In the case of “CASC10-siRNA (2): siRNA targeting CASC10 RNA, SEQ ID NO 3 and 4: 5′ GACUCUUGGAUCCAAGUUU(dT)(dT) 3′ / 5′ AAACUUGGAUCCAAGAGUC(dT)(dT) 3′ (chain 1 GACUCUUGGAUCCAAGUUUNN; chain 2 AAACUUGGAUCCAAGAGUCNN; 3' dTdT overhangs, chemistry not fully specified)”, the “reduction of invasion ability” value in data set [1] stood at 58%. The “reduction of cell viability” value in data set [2] (50 nM siRNA) is recorded as 15%. Besides, the “reduction of cell viability” value in data set [2] (100 nM siRNA) is on record as 30%. Besides, the “cell viability (reduced to)” value in data set [2] (siRNA combined with CIS 2.5 μM) came out at 56%. Moreover, in data set [3], the cell viability result was “did not significantly reduce cell viability”. Besides, in data set [4], the “increase in caspase-3 activity” value came to 5 fold. In addition, the “increase in caspase-3 activity” value in data set [5] was 4 fold. In data set [6], the Bcl-2 decrease is 66%, the “cleaved Caspase-3 increase” value is 6 fold, the “cleaved Caspase-9 increase” value is given as 2 fold and the “cleaved PARP-1 increase” value was determined as 7 fold. Besides, in data set [6] (vs NC-siRNA), the CDK4 protein entry is reported as “reduction”, the “Cyclin E1 protein” value is on record as “reduction” and the p27 protein levels entry is “reduction”. For the same substance, in data set [7], the cell cycle progression result is reported as “cell cycle arrest in the G0/G1 to S phase”.
